# Laboratory results taken from patent US20070015688A1, “Method for screening for inhibitors of alzheimer's disease” (priority 2000, published 2007).
# Tested on: low-density lipoprotein (LDL)
# Assay: LDL oxidation (lipid peroxidation) assay of Cu-metallated APP proteins
# Assay type: biochemical
# Settings: for % of lipid peroxidation by control: Cu-metallated proteins, 0.5 mg/mL LDL, 24 hr, 37° C., control LDL in PBS alone = 100; for effect on lipid peroxidation (Cu-reducing) activity of the CuBD, in words: mutations incorporated into APP133-189
# Experimental: Mutagenesis experiments were performed to test this. His147 and His151 were mutated to Asn, Tyr168 was mutated to Phe, and Met170 was mutated to Leu. These mutations were incorporated into APP133-189. Recombinant protein was expressed in Pichia pastoris as described above, and purified by standard chromatography methods. The identities of the purified proteins were verified by mass spectrometry. The Cu-reducing activity of the CuBD was tested in a lipid peroxidation assay.
# Two different assays of metal mediated lipid peroxidation were utilized. The first assay involved measuring the oxidative activity of metallated proteins. This was determined by mixing dialyzed metallated or native protein at designated concentrations with 0.5 mg/mL low-density lipoprotein (LDL) for 24 hr (37° C.). Lipid peroxidation was measured using a lipid peroxidation assay kit (LPO 486, Oxis International Inc. Portland, Oreg.), as per kit instructions.
# The control is LDL (0.5 mg/mL) in PBS buffer alone. […] APP133-189 induced strong lipid peroxidation (3-fold above background).
Substance,% of lipid peroxidation by control [%],"effect on lipid peroxidation (Cu-reducing) activity of the CuBD, in words",lipid peroxidation above background (background = APP28-123 negative control) [fold]
His147Asn: APP133-189 with His147 mutated to Asn,87,abolished this activity,
His151Asn: APP133-189 with His151 mutated to Asn,196,"affected the activity, but to a lesser extent",
"APP133-189: truncated version of the CuBD of APP, recombinant protein expressed in Pichia pastoris (CKFLHQERMDVCETHLHWHTVAKETCSEKSTNLHDYGMLLPCGIDKFRGVEFVCCPL; UniProt P05067 133-189, looked up, fragment)",312,,3
Met170Leu: APP133-189 with Met170 mutated to Leu,142,significant effect on the activity,
Tyr168Phe: APP133-189 with Tyr168 mutated to Phe,111,significant effect on the activity,
